We go through three compounds from patent publication US9101579B2, “Inhibition of drug resistant cancer cells” (Celgene Corporation, priority 2012, dated 2015).

Entries after “also recorded” stand apart in the source; their conditions may differ.

One experiment deals with M14 melanoma cell line. Kind of experiment: Drug treatment and CellTiter-Glo cell viability assay, emergence of drug-tolerant expanded persisters (DTEP) in M14 cells. It is filed as cell-based. Conditions: for emergence of DTEPs, continuous co-treatment: 2 μM AZ628 + 0.5 nM (sub-lethal) romidepsin every 3 days, continuous schedule 45 days, FIG. 1. As to the method: (§1) The M14 melanoma and HCC827 non-small cell lung cancer cell (NSCLC) cell lines were purchased from American Type Culture Collection (ATCC; Manassas, Va.). Cells were cultured at 37° C./5% CO2 in RPMI-1640 medium (ATCC) supplemented with 10% FBS. AZ628 and Erlotnib were purchased from Selleck Chemicals (Houston, Tex.) and reconstituted in DMSO to 20 mM. Romidepsin (Celgene Corporation) was reconstituted in DMSO to 10 μM. All drugs were stored at −30° C.
(§2) Romidepsin was used at a final concentration of 1 nM for HCC827 cells and 0.5 nM for M14 cells. Conditioned media were replaced with fresh drug-containing media every three days (“continuous Q3D” schedule). The Q3D schedule was evaluated continuously over a period of 27-45 days, and also for shorter durations ranging from 3-21 days.
(§3) Cell viability was monitored periodically over 27-45 days using CellTiter-Glo (CTG). On select days, an equal volume (1 mL) of CTG was added to each well of the 24-well plates. The plates, wrapped with aluminum foil, were incubated on a shaking platform for 10 minutes. A 200 μL aliquot from each well was transferred to a new well of 96-well plates. The SpectraMax L (Molecular Devices; Sunnyvale, Calif.) was used to measure luminescence.
Background: ATP-based viability assays read luminescence as a measure of living cells.

Experiment [1] concerns HCC827 non-small cell lung cancer cell line. Kind of experiment: Drug treatment and CellTiter-Glo cell viability assay, emergence of drug-tolerant expanded persisters (DTEP) in HCC827 cells. It is filed as cell-based. As to the method:
as §1, §2, §3
Conditioned medium was replaced with fresh drug-containing medium every three days. Starting on day 12, the drug-containing medium also included 1 nM romidepsin. Cell viability was monitored on days 0, 15, and 37 using CellTiter-Glo (CTG).

For the compound `Cc1ccc(NC(=O)c2cccc(C(C)(C)C#N)c2)cc1Nc1ccc2ncn(C)c(=O)c2c1` [AZ628], the “outgrowth of DTPs into DTEPs under continued AZ628 alone” value in the experiment with M14 melanoma cell line (M14 cells, continued treatment with AZ628 2 μM every 3 days) was “yielding a large population of AZ628-resistant cells”. Moreover, the “cell death on treatment with AZ628 alone” value with M14 melanoma cell line (M14 cells, high concentration (100×IC50; 2 μM) AZ628, after 9 days) is recorded as “Massive cell death”.

As to `C#Cc1cccc(Nc2ncnc3cc(OCCOC)c(OCCOC)cc23)c1` [Erlotinib], the “cell death on treatment with Erlotinib alone” value in experiment [1] (NSCLC (HCC827) cells, high concentration (100×IC50; 2 μM) Erlotinib, after 9 days) is “Massive cell death”.

As to `C/C=C1\NC(=O)[C@H]2CSSCC/C=C/[C@H](CC(=O)N[C@H](C(C)C)C(=O)N2)OC(=O)[C@H](C(C)C)NC1=O` [romidepsin, (1S,4S,7Z,10S,16E,21R)-7-ethylidene-4,21-bis(1-methylethyl)-2-oxa-12,13-dithia-5,8,20,23-tetrazabicyclo[8.7.6]tricos-16-ene-3,6,9,19,22-pentone], the “Erlotinib-resistant cells after delayed addition of romidepsin” value in experiment [1] (HCC827 cells pretreated with 2 μM Erlotinib every 3 days, 1 nM romidepsin added from day 12, viability on days 0, 15, 37, FIG. 5) is listed as “eliminated Erlotinib-resistant HCC827 cells”. The “emergence of DTEPs, reduced romidepsin schedule” value in experiment [1] (HCC827 cells treated with 2 μM Erlotinib, romidepsin 1.0 nM every 3 days for 2 weeks, FIG. 3C) is “prevented the emergence of DTEPs”. For the same compound, the “number of romidepsin doses sufficient to prevent emergence of DTEP” value in experiment [1] (HCC827 cells treated with 2 μM Erlotinib, romidepsin 1.0 nM every 3 days, FIG. 3C) is 4 doses; in the experiment on M14 melanoma cell line (M14 cells treated with 2 μM AZ628, romidepsin 0.5 nM every 3 days, FIGS. 3A and 3B), 5 doses. The “emergence of DTEPs, continuous co-treatment” value in experiment [1] (HCC827 cells, 2 μM Erlotinib + 1.0 nM (sub-lethal) romidepsin every 3 days, continuous schedule 27 days, FIG. 2) is given as “prevented the emergence of DTEPs; also recorded: prevented the DTEP emergence”; with M14 melanoma cell line (M14 cells), “prevented the DTEP emergence”; in the experiment with M14 melanoma cell line (M14 cells, listed as romidespin), “prevented the emergence of DTEPs”. Further, the “DTEP growth, short (6-hour) romidepsin exposure (wash-out)” value in experiment [1] (HCC827 cells, 2 μM Erlotinib, higher romidepsin concentration (1, 5 and 20 nM tested), 6-hour exposure on continuous schedule, FIG. 4B) was “sufficient to prevent DTEP growth”; with M14 melanoma cell line (M14 cells, 2 μM AZ628, higher romidepsin concentration (0.5, 2 or 10 nM tested), 6-hour exposure on continuous schedule, FIG. 4A), “sufficient to prevent DTEP growth”. Moreover, the “emergence of DTEP, reduced romidepsin schedule” value in the experiment on M14 melanoma cell line (M14 cells treated with 2 μM AZ628, romidepsin 0.5 nM every 3 days for 2 weeks, FIGS. 3A and 3B) was “prevented the emergence of DTEP”.
